Reference: US12637478B2, “Compound, preparation method thereof, and antibiotic composition comprising same” (priority 2020, dated 2026)
≈ marks a conversion by molar mass, not a printed value. Read-outs that look alike come from different tables or passages of the source.

How the values were obtained:
S. aureus^MS [1] = experiment: MIC by broth microdilution (aerobic pathogens), test strain 1; assay type: cell-based; conditions: Staphylococcus aureus
Method: (§1) The antibacterial activity of the compounds of Examples 1 to 48 of the present invention against aerobic pathogens were evaluated by measuring the minimum concentration of the antibiotic capable of inhibiting bacterial growth by 90% compared to the growth of the non-drug treated control group. MIC was measured by the broth microdilution method based on CLSI standards [Reference: Clinical and Laboratory Standards Institute Document. (2000) Methods for Dilution Antimicrobial Susceptibility Test for Bacteria that Grow Aerobically-Fifth Edition: M7-A5. CLSI, Villanova, PA].
(§2) All 13 strains such as methicillin susceptible Staphylococcus aureus (MSSA), methicillin resistant Staphylococcus aureus (MRSA), Vancomycin resistant Staphylococcus aureus (VRSA), Staphylococcus epidermidis, methicillin resistant Staphylococcus epidermidis, Enterococcus faecalis, Vancomycin resistant Enterococcus faecalis, Enterococcus faecium, Vancomycin resistant Enterococcus faecium were used.

S. aureus^MS [2] = experiment: MIC by broth microdilution (aerobic pathogens), test strain 2; assay type: cell-based; conditions: Staphylococcus aureus
Method: as §1, §2

S. aureus^VR = experiment: MIC by broth microdilution (aerobic pathogens), test strain 4; assay type: cell-based, Vancomycin resistant Staphylococcus aureus; conditions: Staphylococcus aureus; test strain 4, S. aureus^VR (vancomycin resistant); read-out: MIC
Method: as §1, §2

S. epidermis = experiment: MIC by broth microdilution (aerobic pathogens), test strain 5; assay type: cell-based; conditions: Staphylococcus epidermidis
Method: as §1, §2

S. epidermis^MR = experiment: MIC by broth microdilution (aerobic pathogens), test strain 6; assay type: cell-based, Methicillin resistant Staphylococcus epidermidis; conditions: Staphylococcus epidermidis
Method: as §1, §2

E. faecalis = experiment: MIC by broth microdilution (aerobic pathogens), test strain 7; assay type: cell-based; conditions: Enterococcus faecalis; test strain 7, E. faecalis; read-out: MIC
Method: as §1, §2

E. faecalis^VanA = experiment: MIC by broth microdilution (aerobic pathogens), test strain 8; assay type: cell-based, Vancomycin resistant Enterococcus faecalis; conditions: Enterococcus faecalis; test strain 8, E. faecalis^VanA (vancomycin resistant); read-out: MIC
Method: as §1, §2

E. faecalis^LinR = experiment: MIC by broth microdilution (aerobic pathogens), test strain 9; assay type: cell-based, Linezolid resistant Enterococcus faecalis; conditions: Enterococcus faecalis
Method: as §1, §2

E. faecium = experiment: MIC by broth microdilution (aerobic pathogens), test strain 10; assay type: cell-based; conditions: Enterococcus faecium; test strain 10, E. faecium; read-out: MIC
Method: as §1, §2

E. faecium^VRE = experiment: MIC by broth microdilution (aerobic pathogens), test strain 11; assay type: cell-based, Vancomycin resistant Enterococcus faecium; conditions: Enterococcus faecium; test strain 11, E. faecium^VRE (vancomycin resistant); read-out: MIC
Method: as §1, §2

E. faecium^LinR = experiment: MIC by broth microdilution (aerobic pathogens), test strain 12; assay type: cell-based, Linezolid resistant Enterococcus faecium; conditions: Enterococcus faecium; test strain 12, E. faecium^LinR (linezolid resistant); read-out: MIC
Method: as §1, §2

C. difficile 9689 = experiment: MIC by agar dilution against Clostridioides difficile, test strain 13; assay type: cell-based
C. difficile 152 = experiment: MIC by agar dilution against Clostridioides difficile, test strain 14; assay type: cell-based
C. difficile 173 = experiment: MIC by agar dilution against Clostridioides difficile, test strain 17; assay type: cell-based
C. difficile 174 = experiment: MIC by agar dilution against Clostridioides difficile, test strain 18; assay type: cell-based
C. difficile 181 = experiment: MIC by agar dilution against Clostridioides difficile, test strain 19; assay type: cell-based; conditions: test strain 19, C. difficile 181, anaerobic, agar dilution, read-out: MIC
S. aureus^MR = experiment: MIC by broth microdilution (aerobic pathogens), test strain 3; assay type: cell-based, Methicillin resistant Staphylococcus aureus; conditions: Staphylococcus aureus; test strain 3, S. aureus^MR (methicillin resistant); read-out: MIC
Method: as §1, §2

C. difficile 159 = experiment: MIC by agar dilution against Clostridioides difficile, test strain 15; assay type: cell-based
C. difficile 161 = experiment: MIC by agar dilution against Clostridioides difficile, test strain 16; assay type: cell-based; conditions: test strain 16, C. difficile 161, anaerobic, agar dilution, read-out: MIC
M. abscessus = experiment: MIC by resazurin (REMA) assay against Mycobacterium, test strain 23; assay type: cell-based; conditions: Mycobacteroides abscessus
Method: In order to test the antibacterial activity, the medium of Mycobacterium cultured to late log phase was diluted so as to be 4.0×10^5 cells/well in Middlebrook 7H10 agar medium (Difco) supplemented with 10% oleic acid, albumin, dextrose, catalase (OADC, Becton Dickinson) and 0.05% Tween 80 (Sigma Aldrich) and was dispensed into a 96-well plate. The compounds were treated so that DMSO was 1%, and after 3 days, a 0.025% resazurin (REMA) solution was dispensed, and the growth of the bacteria was confirmed after culturing. The MIC value was measured for the antibacterial activity through resazurin (excitation 530 nm, emission 590 nm).

[3] = test strain 1, S. aureus^MS, read-out: MIC
[4] = test strain 2, S. aureus^MS, read-out: MIC
[5] = test strain 5, S. epidermis, read-out: MIC
[6] = test strain 6, S. epidermis^MR (methicillin resistant), read-out: MIC
[7] = test strain 9, E. faecalis^LinR (linezolid resistant), read-out: MIC
[8] = test strain 13, C. difficile 9689, anaerobic, agar dilution, read-out: MIC
[9] = test strain 14, C. difficile 152, anaerobic, agar dilution, read-out: MIC
[10] = test strain 17, C. difficile 173, anaerobic, agar dilution, read-out: MIC
[11] = test strain 18, C. difficile 174, anaerobic, agar dilution, read-out: MIC
[12] = test strain 15, C. difficile 159, anaerobic, agar dilution, read-out: MIC

Row | Compound | MIC (S. aureus^MS [1]; [3]) [µg/mL] | MIC (S. aureus^MS [2]; [4]) [µg/mL] | MIC (S. aureus^VR) [µg/mL] | MIC (S. epidermis; [5]) [µg/mL] | MIC (S. epidermis^MR; [6]) [µg/mL] | MIC (E. faecalis) [µg/mL] | MIC (E. faecalis^VanA) [µg/mL] | MIC (E. faecalis^LinR; [7]) [µg/mL] | MIC (E. faecium) [µg/mL] | MIC (E. faecium^VRE) [µg/mL] | MIC (E. faecium^LinR) [µg/mL] | MIC (C. difficile 9689; [8]) [µg/mL] | MIC (C. difficile 152; [9]) [µg/mL] | MIC (C. difficile 173; [10]) [µg/mL] | MIC (C. difficile 174; [11]) [µg/mL] | MIC (C. difficile 181) [µg/mL] | MIC (C. difficile 159; [12]) [µg/mL] | MIC (C. difficile 161) [µg/mL] | also measured
1 | C/C=C1\NC(=O)[C@H]([C@@H](C)O)NC(=O)c2csc(n2)-c2ccc(-c3nc(-c4nc(C(=O)NC5(C(=O)NCC6OB(O)c7ccccc76)CC5)cs4)cs3)nc2-c2csc(n2)[C@H]([C@@H](C)O)NC(=O)c2csc(n2)[C@H](C(C)C)NC(=O)c2csc1n2 (stereo partly shown) [Compound 6] | 0.5 (≈ 0.406 µM) | 0.25 (≈ 0.203 µM) | 1 (≈ 0.812 µM) | 0.5 (≈ 0.406 µM) | 1 (≈ 0.812 µM) | 0.125 (≈ 0.101 µM) | 1 (≈ 0.812 µM) | 0.125 (≈ 0.101 µM) | 0.25 (≈ 0.203 µM) | 1 (≈ 0.812 µM) | 0.5 (≈ 0.406 µM) | 1 (≈ 0.812 µM) | 0.06 (≈ 0.0487 µM) | 0.06 (≈ 0.0487 µM) | 0.06 (≈ 0.0487 µM) | 0.06 (≈ 0.0487 µM) | – | – | –
2 | C/C=C1\NC(=O)[C@H]([C@@H](C)O)NC(=O)c2csc(n2)-c2ccc(-c3nc(-c4nc(C(=O)NC5(C(=O)NCCn6c([N+](=O)[O-])cnc6C)CC5)cs4)cs3)nc2-c2csc(n2)[C@H]([C@@H](C)O)NC(=O)c2csc(n2)[C@H](C(C)C)NC(=O)c2csc1n2 [Compound 11] | 0.5 (≈ 0.403 µM) | 0.5 (≈ 0.403 µM) | – | 0.125 (≈ 0.101 µM) | 0.5 (≈ 0.403 µM) | 0.25 (≈ 0.202 µM) | 1 (≈ 0.807 µM) | 0.5 (≈ 0.403 µM) | 1 (≈ 0.807 µM) | – | – | 1 (≈ 0.807 µM) | 0.25 (≈ 0.202 µM) | 0.125 (≈ 0.101 µM) | 0.125 (≈ 0.101 µM) | 0.125 (≈ 0.101 µM) | 0.5 (≈ 0.403 µM) | 0.5 (≈ 0.403 µM) | –
3 | C/C=C1\NC(=O)[C@H]([C@@H](C)O)NC(=O)c2csc(n2)-c2ccc(-c3nc(-c4nc(C(=O)NC5(C(=O)NCCCCB(O)O)CC5)cs4)cs3)nc2-c2csc(n2)[C@H]([C@@H](C)O)NC(=O)c2csc(n2)[C@H](C(C)C)NC(=O)c2csc1n2 [Compound 20] | 0.25 (≈ 0.211 µM) | 0.125 (≈ 0.105 µM) | – | 0.5 (≈ 0.421 µM) | 0.5 (≈ 0.421 µM) | 0.5 (≈ 0.421 µM) | – | 0.25 (≈ 0.211 µM) | 0.5 (≈ 0.421 µM) | 1 (≈ 0.843 µM) | 1 (≈ 0.843 µM) | 0.25 (≈ 0.211 µM) | 0.25 (≈ 0.211 µM) | 0.5 (≈ 0.421 µM) | 0.25 (≈ 0.211 µM) | 1 (≈ 0.843 µM) | 0.5 (≈ 0.421 µM) | 1 (≈ 0.843 µM) | –
4 | C/C=C1\NC(=O)[C@H]([C@@H](C)O)NC(=O)c2csc(n2)-c2ccc(-c3nc(-c4nc(C(=O)NC5(C(=O)NN6CC(=O)NC6=O)CC5)cs4)cs3)nc2-c2csc(n2)[C@H]([C@@H](C)O)NC(=O)c2csc(n2)[C@H](C(C)C)NC(=O)c2csc1n2 [Compound 23] | – | – | – | – | – | – | – | – | – | – | – | – | – | – | – | – | – | – | MIC (S. aureus^MS [1]): 0.5 µg/mL (≈ 0.422 µM); MIC (S. aureus^MS [2]): 0.5 µg/mL (≈ 0.422 µM); MIC (S. epidermis): 1 µg/mL (≈ 0.844 µM); MIC (S. epidermis^MR): 1 µg/mL (≈ 0.844 µM); MIC (E. faecalis^LinR): 1 µg/mL (≈ 0.844 µM); MIC (C. difficile 9689; 9689): 0.25 µg/mL (≈ 0.211 µM); MIC (C. difficile 152; 152): 0.25 µg/mL (≈ 0.211 µM); MIC (C. difficile 159; 159): 0.5 µg/mL (≈ 0.422 µM); MIC (C. difficile 173; 173): 1 µg/mL (≈ 0.844 µM); MIC (C. difficile 174; 174): 0.125 µg/mL (≈ 0.106 µM); MIC (M. abscessus): 0.226 µg/mL (≈ 0.191 µM)

Continued by falling MIC (S. aureus^MS [1]; [3]), values first:

Row | MIC (S. aureus^MS [1]; [3]) [µg/mL] | MIC (S. aureus^MS [2]; [4]) [µg/mL] | MIC (S. aureus^VR) [µg/mL] | MIC (S. epidermis; [5]) [µg/mL] | MIC (S. epidermis^MR; [6]) [µg/mL] | MIC (E. faecalis) [µg/mL] | MIC (E. faecalis^VanA) [µg/mL] | MIC (E. faecalis^LinR; [7]) [µg/mL] | MIC (E. faecium) [µg/mL] | MIC (E. faecium^VRE) [µg/mL] | MIC (E. faecium^LinR) [µg/mL] | MIC (C. difficile 9689; [8]) [µg/mL] | MIC (C. difficile 152; [9]) [µg/mL] | MIC (C. difficile 173; [10]) [µg/mL] | MIC (C. difficile 174; [11]) [µg/mL] | MIC (C. difficile 181) [µg/mL] | MIC (C. difficile 159; [12]) [µg/mL] | MIC (C. difficile 161) [µg/mL] | Compound | also measured
5 | 1 (≈ 0.815 µM) | 1 (≈ 0.815 µM) | 1 (≈ 0.815 µM) | 1 (≈ 0.815 µM) | 1 (≈ 0.815 µM) | – | 1 (≈ 0.815 µM) | – | 0.5 (≈ 0.408 µM) | 1 (≈ 0.815 µM) | 1 (≈ 0.815 µM) | – | – | – | – | – | – | – | C/C=C1\NC(=O)[C@H]([C@@H](C)O)NC(=O)c2csc(n2)-c2ccc(-c3nc(-c4nc(C(=O)NC5(C(=O)NCCn6cnc([N+](=O)[O-])n6)CC5)cs4)cs3)nc2-c2csc(n2)[C@H]([C@@H](C)O)NC(=O)c2csc(n2)[C@H](C(C)C)NC(=O)c2csc1n2 [Compound 38] | –
6 | 0.125 (≈ 0.107 µM) | 0.0625 (≈ 0.0533 µM) | 0.5 (≈ 0.427 µM) | 0.0625 (≈ 0.0533 µM) | 0.125 (≈ 0.107 µM) | 0.25 (≈ 0.213 µM) | 0.25 (≈ 0.213 µM) | 0.125 (≈ 0.107 µM) | 0.25 (≈ 0.213 µM) | – | 0.5 (≈ 0.427 µM) | 0.5 (≈ 0.427 µM) | 0.06 (≈ 0.0512 µM) | 0.06 (≈ 0.0512 µM) | 0.06 (≈ 0.0512 µM) | 0.25 (≈ 0.213 µM) | 0.25 (≈ 0.213 µM) | 0.125 (≈ 0.107 µM) | C/C=C1\NC(=O)[C@H]([C@@H](C)O)NC(=O)c2csc(n2)-c2ccc(-c3nc(-c4nc(C(=O)NC5(C(=O)NCCCB(O)O)CC5)cs4)cs3)nc2-c2csc(n2)[C@H]([C@@H](C)O)NC(=O)c2csc(n2)[C@H](C(C)C)NC(=O)c2csc1n2 [Compound 10] | MIC (S. aureus^MR): 0.5 µg/mL (≈ 0.427 µM)
